# In patent US9708316B2 (BRISTOL-MYERS SQUIBB COMPANY, priority 2014, dated 2017):
# Where two headings read alike, the source gives them in different places.
# Key:
# [1] = biological target: HIS-TGFβR2 WT (Homo sapiens, UniProt P37173); test: HTRF probe-displacement assay, HIS-TGFβR2 WT; format: binding
# [2] = biological target: T1, HIS-TGFβR1 T204D (Homo sapiens, UniProt P36897, T204D); test: HTRF probe-displacement assay, HIS-TGFβR1 T204D; format: binding
# T1 sequence (P36897 34-503 T204D): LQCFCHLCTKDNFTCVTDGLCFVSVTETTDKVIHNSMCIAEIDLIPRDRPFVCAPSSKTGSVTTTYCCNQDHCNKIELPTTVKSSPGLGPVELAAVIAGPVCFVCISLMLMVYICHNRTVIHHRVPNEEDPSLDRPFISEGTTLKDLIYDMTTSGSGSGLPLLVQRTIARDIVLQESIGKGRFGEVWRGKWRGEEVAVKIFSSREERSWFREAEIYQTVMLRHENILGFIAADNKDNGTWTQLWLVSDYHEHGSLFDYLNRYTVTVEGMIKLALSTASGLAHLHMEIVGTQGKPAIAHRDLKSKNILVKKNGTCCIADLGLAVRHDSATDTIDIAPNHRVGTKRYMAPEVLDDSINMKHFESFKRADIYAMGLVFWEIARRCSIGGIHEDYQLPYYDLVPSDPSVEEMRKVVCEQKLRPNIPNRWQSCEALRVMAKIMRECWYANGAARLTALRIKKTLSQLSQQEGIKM
# Sequence of HIS-TGFβR2 WT (P37173 23-567): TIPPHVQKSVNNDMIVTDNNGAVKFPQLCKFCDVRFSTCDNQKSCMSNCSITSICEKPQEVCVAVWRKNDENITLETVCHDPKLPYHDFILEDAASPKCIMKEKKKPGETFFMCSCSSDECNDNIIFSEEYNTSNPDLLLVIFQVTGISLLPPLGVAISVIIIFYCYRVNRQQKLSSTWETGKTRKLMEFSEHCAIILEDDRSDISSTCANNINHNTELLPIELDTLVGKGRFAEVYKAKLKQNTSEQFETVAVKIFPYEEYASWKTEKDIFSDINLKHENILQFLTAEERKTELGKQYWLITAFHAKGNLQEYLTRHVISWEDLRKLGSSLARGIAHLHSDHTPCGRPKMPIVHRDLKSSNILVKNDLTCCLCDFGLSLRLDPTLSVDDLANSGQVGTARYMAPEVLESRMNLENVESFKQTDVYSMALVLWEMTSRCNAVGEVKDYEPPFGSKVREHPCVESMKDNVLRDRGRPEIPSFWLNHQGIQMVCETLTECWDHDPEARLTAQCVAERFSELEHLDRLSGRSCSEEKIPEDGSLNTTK
IC50 [1] [µM],IC50 ([2]; read-out: TGFβR1 (μM) IC50) [µM],IC50 [2] [µM],Compound
0.067,0.005,,"COc1ccc(-c2c(-c3ccnc(NC(C)=O)c3)[nH]c3cc(F)cnc23)cn1 [Example 40, N-{4-[6-Fluoro-3-(6-methoxypyridin-3-yl)-1H-pyrrolo[3,2-b]pyridin-2-yl]pyridin-2-yl}acetamide]"
> 15,1.49,,"CC(=O)Nc1cc(-c2[nH]c3cccnc3c2-c2cccc3cccnc23)ccn1 [Example 21, N-{4-[3-(Quinolin-8-yl)-1H-pyrrolo[3,2-b]pyridin-2-yl]pyridin-2-yl}acetamide]"
2.45,0.005,,"COc1ccnc2c(-c3ccc(F)cn3)c(-c3ccnc(NC(C)=O)c3)[nH]c12 [Example 268, N-(4-(3-(5-Fluoropyridin-2-yl)-7-methoxy-1H-pyrrolo[3,2-b]pyridin-2-yl)pyridin-2-yl)acetamide]"
> 15,0.019,,"CC(=O)Nc1cc(-c2[nH]c3c(Cl)ccnc3c2-c2ccc(Cl)cn2)ccn1 [Example 63, N-{4-[7-Chloro-3-(5-chloropyridin-2-yl)-1H-pyrrolo[3,2-b]pyridin-2-yl]pyridin-2-yl}acetamide]"
4.07,0.002,,"CN(C)C1CCN(CC(=O)Nc2cc(-c3[nH]c4cc(Cl)cnc4c3-c3ccc(F)cn3)ccn2)CC1 [Example 245, N-(4-(6-Chloro-3-(5-fluoropyridin-2-yl)-1H-pyrrolo[3,2-b]pyridin-2-yl)pyridin-2-yl)-2-(4-(dimethylamino)piperidin-1-yl)acetamide]"
0.069,0.003,,"CC(=O)Nc1cc(-c2[nH]c3nccnc3c2-c2cccc(Cl)n2)ccn1 [Example 55, N-{4-[7-(6-Chloropyridin-2-yl)-5H-pyrrolo[2,3-b]pyrazin-6-yl]pyridin-2-yl}acetamide]"
8.37,0.002,,"CC(=O)Nc1cc(-c2[nH]c3c(C(F)F)ccnc3c2-c2cccc(C(F)F)n2)ccn1 [Example 149, N-{4-[7-(Difluoromethyl)-3-[6-(difluoromethyl)pyridin-2-yl]-1H-pyrrolo[3,2-b]pyridin-2-yl]pyridin-2-yl}acetamide]"
> 15,0.001,,"CC(=O)Nc1cc(-c2[nH]c3c(C(C)C)ccnc3c2-c2cccc(C(F)F)n2)ccn1 [Example 133, N-(4-{3-[6-(Difluoromethyl)pyridin-2-yl]-7-(propan-2-yl)-1H-pyrrolo[3,2-b]pyridin-2-yl}pyridin-2-yl)acetamide]"
> 15,0.007,,"COc1ccc(-c2c(-c3ccnc(NC(=O)CN4CCOCC4)c3)[nH]c3cc(Cl)cnc23)nc1 [Example 250, N-(4-(6-Chloro-3-(5-methoxypyridin-2-yl)-1H-pyrrolo[3,2-b]pyridin-2-yl)pyridin-2-yl)-2-morpholinoacetamide]"
> 15,0.005,,"COc1ccc(-c2c(-c3ccnc(NC(C)=O)c3)[nH]c3c(OC)ccnc23)nc1 [Example 266, N-(4-(7-Methoxy-3-(5-methoxypyridin-2-yl)-1H-pyrrolo[3,2-b]pyridin-2-yl)pyridin-2-yl)acetamide]"
0.821,0.0029,,"CC(=O)Nc1cc(-c2[nH]c3cc(C)cnc3c2-c2csc(C)n2)ccn1 [Example 186, N-(4-(6-Methyl-3-(2-methylthiazol-4-yl)-1H-pyrrolo[3,2-b]pyridin-2-yl)pyridin-2-yl)acetamide]"
> 15,0.001,,"COc1ccc(-c2c(-c3ccnc(NC(=O)CN4CC[C@H](O)C4)c3)[nH]c3cc(OC)cnc23)nc1 [Example 121, 2-[(3S)-3-Hydroxypyrrolidin-1-yl]-N-{4-[6-methoxy-3-(5-methoxypyridin-2-yl)-1H-pyrrolo[3,2-b]pyridin-2-yl]pyridin-2-yl}acetamide]"
0.129,0.0015,,"CC(=O)Nc1cc(-c2[nH]c3c(C(F)F)ccnc3c2-c2nc(C)cs2)ccn1 [Example 222, N-(4-(7-(Difluoromethyl)-3-(4-methylthiazol-2-yl)-1H-pyrrolo[3,2-b]pyridin-2-yl)pyridin-2-yl)acetamide]"
> 15,0.005,,"CC(=O)Nc1cc(-c2[nH]c3cccnc3c2-c2ccc(Cl)c(C)n2)ccn1 [Example 33, N-{4-[3-(5-Chloro-6-methylpyridin-2-yl)-1H-pyrrolo[3,2-b]pyridin-2-yl]pyridin-2-yl}acetamide]"
0.21,0.018,,"CC(=O)Nc1cc(-c2[nH]c3cccnc3c2-c2cc(C)c(F)cn2)ccn1 [Example 24, N-{4-[3-(5-Fluoro-4-methylpyridin-2-yl)-1H-pyrrolo[3,2-b]pyridin-2-yl]pyridin-2-yl}acetamide]"
3.72,,0.002,"CC(=O)Nc1cc(-c2[nH]c3cc(Cl)cnc3c2-c2cccc(C)n2)ccn1 [Example 66, N-{4-[6-Chloro-3-(6-methylpyridin-2-yl)-1H-pyrrolo[3,2-b]pyridin-2-yl]pyridin-2-yl}acetamide]"

IC50 [1] [µM],IC50 ([2]; read-out: TGFβR1 (μM) IC50) [µM],IC50 [2] [µM],Compound
0.882,0.0023,,CC(=O)Nc1cc(-c2[nH]c3cc(Cl)cnc3c2-c2ncc(C)s2)ccn1 [Example 169]
> 15,0.039,,"CC(=O)Nc1cc(-c2[nH]c3cccnc3c2-c2ccc3ncccc3c2)ccn1 [Example 22, N-{4-[3-(Quinolin-6-yl)-1H-pyrrolo[3,2-b]pyridin-2-yl]pyridin-2-yl}acetamide]"
3.77,0.0013,,"CC(=O)Nc1cc(-c2[nH]c3c(C)ccnc3c2-c2cccc(C(F)F)n2)ccn1 [Example 216, N-(4-(3-(6-(Difluoromethyl)pyridin-2-yl)-7-methyl-1H-pyrrolo[3,2-b]pyridin-2-yl)pyridin-2-yl)acetamide]"
> 15,0.001,,"CCCc1ccnc2c(-c3cccc(C(F)F)n3)c(-c3ccnc(NC(C)=O)c3)[nH]c12 [Example 132, N-(4-{3-[6-(Difluoromethyl)pyridin-2-yl]-7-propyl-1H-pyrrolo[3,2-b]pyridin-2-yl}pyridin-2-yl)acetamide]"
> 15,0.433,,"CC(=O)Nc1cc(-c2[nH]c3cc(Cl)cnc3c2-c2cccc(OC(C)C)n2)ccn1 [Example 255, N-(4-(6-Chloro-3-(6-isopropoxypyridin-2-yl)-1H-pyrrolo[3,2-b]pyridin-2-yl)pyridin-2-yl)acetamide]"
2.94,0.002,,"[2H]C([2H])([2H])C(O)c1ccnc2c(-c3cccc(C(F)F)n3)c(-c3ccnc(NC(C)=O)c3)[nH]c12 (stereo not shown) [Example 145, N-(4-{3-[6-(Difluoromethyl)pyridin-2-yl]-7-[1-hydroxy(2,2,2-2H)ethyl]-1H-pyrrolo[3,2-b]pyridin-2-yl}pyridin-2-yl)acetamide]"
0.36,0.037,,"CC(=O)Nc1cc(-c2[nH]c3cc(Cl)cnc3c2-c2cccc(CO)n2)ccn1 [Example 67, N-(4-{6-Chloro-3-[6-(hydroxymethyl)pyridin-2-yl]-1H-pyrrolo[3,2-b]pyridin-2-yl}pyridin-2-yl)acetamide]"
> 15,0.008,,"COc1ccc(-c2c(-c3ccnc(N)c3)[nH]c3cc(Cl)cnc23)nc1 [Example 86, 4-[6-Chloro-3-(5-methoxypyridin-2-yl)-1H-pyrrolo[3,2-b]pyridin-2-yl]pyridin-2-amine]"
1.04,0.0049,,"CC(=O)Nc1cc(-c2[nH]c3cccnc3c2-c2csc(C)n2)ccn1 [Example 211, N-(4-(3-(2-Methylthiazol-4-yl)-1H-pyrrolo[3,2-b]pyridin-2-yl)pyridin-2-yl)acetamide]"
> 15,0.019,,"COc1ccc(-c2c(-c3ccnc(NC(C)=O)c3)[nH]c3cc(S(C)(=O)=O)cnc23)nc1 [Example 91, N-{4-[6-Methanesulfonyl-3-(5-methoxypyridin-2-yl)-1H-pyrrolo[3,2-b]pyridin-2-yl]pyridin-2-yl}acetamide]"
3.98,0.0004,,"CC(=O)Nc1cc(-c2[nH]c3cc(Cl)cnc3c2-c2nc(C(F)F)cs2)ccn1 [Example 172, N-(4-(6-Chloro-3-(4-(difluoromethyl)thiazol-2-yl)-1H-pyrrolo[3,2-b]pyridin-2-yl)pyridin-2-yl)acetamide]"
> 15,0.774,,"CC(=O)Nc1cc(-c2[nH]c3cccnc3c2-c2nc(C#N)cs2)ccn1 [Example 203, N-(4-(3-(4-Cyanothiazol-2-yl)-1H-pyrrolo[3,2-b]pyridin-2-yl)pyridin-2-yl)acetamide]"
7.56,0.0443,,"CC(=O)Nc1cc(-c2[nH]c3cccnc3c2-c2ccnc(C#N)c2)ccn1 [Example 190, N-(4-(3-(2-Cyanopyridin-4-yl)-1H-pyrrolo[3,2-b]pyridin-2-yl)pyridin-2-yl)acetamide]"
0.041,0.0006,,"CC(=O)Nc1cc(-c2[nH]c3cccnc3c2-c2nc(C)cs2)ccn1 [Example 199, N-(4-(3-(4-Methylthiazol-2-yl)-1H-pyrrolo[3,2-b]pyridin-2-yl)pyridin-2-yl)acetamide]"
0.267,0.002,,"CC(=O)Nc1cc(-c2[nH]c3c(C(C)O)ccnc3c2-c2cccc(F)n2)ccn1 (stereo not shown) [Example 262, N-(4-(3-(6-Fluoropyridin-2-yl)-7-(1-hydroxyethyl)-1H-pyrrolo[3,2-b]pyridin-2-yl)pyridin-2-yl)acetamide]"
> 15,0.002,,"COC(=O)Nc1cc(-c2[nH]c3cc(Cl)cnc3c2-c2ccc(OC)cn2)ccn1 [Example 87, Methyl N-{4-[6-chloro-3-(5-methoxypyridin-2-yl)-1H-pyrrolo[3,2-b]pyridin-2-yl]pyridin-2-yl}carbamate]"
